Results as given in ChEMBL document CHEMBL5537174, “Discovery of Potent SOS1 PROTACs with Effective Antitumor Activities against NCI-H358 Tumor Cells In Vitro/In Vivo” (J Med Chem, 2024).

Assays:
NCI-H358 [1] = experiment: Antiproliferative activity against human NCI-H358 cells assessed as inhibition of cell proliferation incubated for 7 days by celltiter-glo 3D assay; format: functional, cell-based; details: NCI-H358, 168 h
[2] = target: Protein cereblon/Son of sevenless homolog 1 (Homo sapiens, UniProt Q07889+Q96SW2); experiment: PROTAC activity at CRBN/SOS1 in human NCI-H358 cells assessed as induction of SOS1 degradation incubated for 6 hrs by Western blotting analysis; format: cell-based
NCI-H358 [3] = experiment: Antiproliferative activity against human NCI-H358 cells harboring G12C mutant assessed as inhibition of cell proliferation incubated for 7 days by celltiter-glo 3D assay; format: functional, cell-based; details: NCI-H358, 168 h
NCI-H358 [4] = experiment: Antitumor activity against human NCI-H358 cells xenografted in BALB/c nude mouse assessed as tumor growth inhibition at 30 mg/kg, ip measured twice daily for 21 days; format: functional; details: NCI-H358, 504 h, time 21 day, read-out: TGI
[5] = Toxicity in BALB/c nude mouse xenografted with human NCI-H358 cells assessed as body weight loss at 30 mg/kg, ip measured every 3 days for 21 days; format: organism-based; details: in vivo, 504 h, time 21 day
NCI-H358 [6] = experiment: Antiproliferative activity against human NCI-H358 cells assessed as reduction in cell viability
[7] = Antiproliferative activity against human GP2d cells harboring G12D mutant assessed as inhibition of cell proliferation incubated for 7 days by celltiter-glo 3D assay; format: functional, cell-based; details: 168 h
DLD-1 = experiment: Antiproliferative activity against human DLD-1 cells harboring G13D mutant assessed as inhibition of cell proliferation incubated for 7 days by celltiter-glo 3D assay; format: functional, cell-based; details: DLD-1, 168 h
NCI-H441 = experiment: Antiproliferative activity against human NCI-H441 cells harboring G12V mutant assessed as inhibition of cell proliferation incubated for 7 days by celltiter-glo 3D assay; format: functional, cell-based; details: NCI-H441, 168 h
SOS1-KRAS = SOS1-KRAS (Homo sapiens, UniProt Q07889); experiment: Inhibition of SOS1/KRAS G12C mutant (unknown origin); format: protein-complex assay
Chain of SOS1-KRAS (Q07889 whole entry, looked up, stated change not applied): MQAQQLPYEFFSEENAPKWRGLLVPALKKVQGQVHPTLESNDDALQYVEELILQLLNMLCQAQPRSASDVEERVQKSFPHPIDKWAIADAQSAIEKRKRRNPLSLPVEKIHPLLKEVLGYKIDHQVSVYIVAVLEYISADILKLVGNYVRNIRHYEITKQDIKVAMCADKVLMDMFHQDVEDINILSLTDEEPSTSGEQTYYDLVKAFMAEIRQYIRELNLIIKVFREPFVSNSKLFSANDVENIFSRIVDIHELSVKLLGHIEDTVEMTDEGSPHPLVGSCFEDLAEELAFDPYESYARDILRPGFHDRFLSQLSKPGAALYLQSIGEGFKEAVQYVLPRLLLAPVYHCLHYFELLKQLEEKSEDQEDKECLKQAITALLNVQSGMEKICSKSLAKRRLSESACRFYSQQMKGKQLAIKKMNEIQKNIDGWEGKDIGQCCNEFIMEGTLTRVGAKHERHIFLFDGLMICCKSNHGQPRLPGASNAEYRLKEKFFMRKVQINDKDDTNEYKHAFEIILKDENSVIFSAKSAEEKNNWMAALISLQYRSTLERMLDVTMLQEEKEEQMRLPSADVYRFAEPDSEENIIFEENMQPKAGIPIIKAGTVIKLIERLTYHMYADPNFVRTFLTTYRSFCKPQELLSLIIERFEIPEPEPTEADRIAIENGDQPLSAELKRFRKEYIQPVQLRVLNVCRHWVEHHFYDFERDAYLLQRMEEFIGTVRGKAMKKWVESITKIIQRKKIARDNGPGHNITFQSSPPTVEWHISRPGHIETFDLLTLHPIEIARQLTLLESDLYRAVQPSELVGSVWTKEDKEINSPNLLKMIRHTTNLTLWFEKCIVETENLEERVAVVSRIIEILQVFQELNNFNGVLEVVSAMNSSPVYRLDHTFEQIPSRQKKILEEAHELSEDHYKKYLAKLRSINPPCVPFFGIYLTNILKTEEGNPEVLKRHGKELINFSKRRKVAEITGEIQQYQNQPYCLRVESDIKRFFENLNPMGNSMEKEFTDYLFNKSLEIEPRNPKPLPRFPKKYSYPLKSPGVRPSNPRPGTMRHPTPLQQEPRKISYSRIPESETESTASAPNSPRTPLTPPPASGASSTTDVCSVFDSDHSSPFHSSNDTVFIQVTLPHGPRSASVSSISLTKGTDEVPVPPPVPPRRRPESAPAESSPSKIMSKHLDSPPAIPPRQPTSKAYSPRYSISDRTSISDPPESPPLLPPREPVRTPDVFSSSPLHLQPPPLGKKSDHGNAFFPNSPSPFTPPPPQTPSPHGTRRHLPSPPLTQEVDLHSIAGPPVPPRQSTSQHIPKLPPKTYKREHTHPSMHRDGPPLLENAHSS

Chain of Protein cereblon/Son of sevenless homolog 1 (Q07889 whole entry): as the sequence (Q07889 whole entry, looked up, stated change not applied) above
Chain of Protein cereblon/Son of sevenless homolog 1 (Q96SW2 whole entry): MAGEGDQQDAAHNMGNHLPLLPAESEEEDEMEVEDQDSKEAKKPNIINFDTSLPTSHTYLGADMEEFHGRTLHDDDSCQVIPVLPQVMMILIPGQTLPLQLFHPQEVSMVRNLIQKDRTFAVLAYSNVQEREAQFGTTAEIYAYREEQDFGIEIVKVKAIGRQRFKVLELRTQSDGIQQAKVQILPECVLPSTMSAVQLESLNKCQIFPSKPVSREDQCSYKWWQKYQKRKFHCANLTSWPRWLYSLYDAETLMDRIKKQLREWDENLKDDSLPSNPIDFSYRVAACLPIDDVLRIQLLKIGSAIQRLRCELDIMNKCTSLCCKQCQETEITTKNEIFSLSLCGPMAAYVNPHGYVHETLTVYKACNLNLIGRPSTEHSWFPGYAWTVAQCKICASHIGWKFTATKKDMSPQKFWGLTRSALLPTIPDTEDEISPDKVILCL

SMILES	IC50 (NCI-H358 [1]) [nM]	other results
COc1cc2nc(C)nc(N[C@H](C)c3cc(N)cc(C(F)(F)F)c3)c2cc1OCC1(CN(C)C(=O)C2CCN(C(=O)C3CCN(c4ccc5c(c4)C(=O)N(C4CCC(=O)NC4=O)C5=O)CC3)CC2)CC1 (stereo partly specified)	84	
COc1cc2nc(C)nc(N[C@H](C)c3cc(N)cc(C(F)(F)F)c3)c2cc1OCC1(CN(C)C(=O)CCCCCCNc2ccc3c(c2)C(=O)N(C2CCC(=O)NC2=O)C3=O)CC1 (stereo partly specified)	799	
COc1cc2nc(C)nc(N[C@H](C)c3cc(N)cc(C(F)(F)F)c3)c2cc1OCC1(CN(C)C(=O)CCCOCCNc2cccc3c2C(=O)N(C2CCC(=O)NC2=O)C3=O)CC1 (stereo partly specified)	70	
COc1cc2nc(C)nc(N[C@H](C)c3cc(N)cc(C(F)(F)F)c3)c2cc1OCC1(CN(C)C(=O)CCCN(C)C2CCC(Nc3cccc4c3C(=O)N(C3CCC(=O)NC3=O)C4=O)CC2)CC1 (stereo partly specified)	814	
COc1cc2nc(C)nc(N[C@H](C)c3cccc(C(F)(F)C(C)(C)O)c3F)c2cc1OCC1(CN(C)C(=O)CCCCCCNc2cccc3c2C(=O)N(C2CCC(=O)NC2=O)C3=O)CC1 (stereo partly specified)	358	
COc1cc2nc(C)nc(N[C@H](C)c3cc(N)cc(C(F)(F)F)c3)c2cc1OCC1(CN(C)C(=O)CCNc2cccc3c2C(=O)N(C2CCC(=O)NC2=O)C3=O)CC1 (stereo partly specified)	2890	
COc1cc2nc(C)nc(N[C@H](C)c3cccc(C(F)F)c3F)c2cc1OCC1(CN(C)C(=O)CCCCCCNc2cccc3c2C(=O)N(C2CCC(=O)NC2=O)C3=O)CC1 (stereo partly specified)	216	DC50 ([2]; read-out: DC50): 540 nM
COc1cc2nc(C)nc(N[C@H](C)c3cc(N)cc(C(F)(F)F)c3)c2cc1OCC1(CN(C)C(=O)CN2CCN(C3CN(c4ccc5c(c4)C(=O)N(C4CCC(=O)NC4=O)C5=O)C3)CC2)CC1 (stereo partly specified)	1200	
COc1cc2nc(C)nc(N[C@H](C)c3cc(N)cc(C(F)(F)F)c3)c2cc1OCC1(CN(C)C(=O)CCCCCCNc2ccc3c(c2F)C(=O)N(C2CCC(=O)NC2=O)C3=O)CC1 (stereo partly specified)	4180	
COc1cc2nc(C)nc(N[C@H](C)c3cc(N)cc(C(F)(F)F)c3)c2cc1OCC1(CN(C)C(=O)CCCCCCNc2nccc3c2C(=O)N(C2CCC(=O)NC2=O)C3=O)CC1 (stereo partly specified)	318	
COc1cc2nc(C)nc(N[C@H](C)c3cc(N)cc(C(F)F)c3)c2cc1OCC1(CN(C)C(=O)CCCCCCNc2cccc3c2C(=O)N(C2CCC(=O)NC2=O)C3=O)CC1 (stereo partly specified)	16	DC50 ([2]; read-out: DC50): 45 nM
COc1cc2nc(C)nc(N[C@H](C)c3cc(N)cc(C(F)(F)F)c3)c2cc1OCC1(CN(C)C(=O)CN2CCC(CN3CCN(c4ccc5c(c4)C(=O)N(C4CCC(=O)NC4=O)C5=O)CC3)CC2)CC1 (stereo partly specified)	1080	
COc1cc2nc(C)nc(N[C@H](C)c3cc(N)cc(C(F)(F)C(C)(C)O)c3)c2cc1OCC1(CN(C)C(=O)CCCCCCNc2cccc3c2C(=O)N(C2CCC(=O)NC2=O)C3=O)CC1 (stereo partly specified)	220	
COc1cc2nc(C)nc(N[C@H](C)c3cc(N)cc(C(F)(F)F)c3)c2cc1OCC1(CN(C)C(=O)CCCCCCNc2cccc3c2C(=O)N(C2CCC(=O)N(C)C2=O)C3=O)CC1 (stereo partly specified)	1380	DC50 [2]: Not Active
COc1cc2nc(C)nc(N[C@H](C)c3cc(N)cc(C(F)(F)F)c3)c2cc1OCC1(CN(C)C(=O)CCCCCNc2cccc3c2C(=O)N(C2CCC(=O)NC2=O)C3=O)CC1 (stereo partly specified)	334	
COc1cc2nc(C)nc(N[C@H](C)c3cc(N)cc(C(F)(F)F)c3)c2cc1OCC1(CN(C)C(=O)C2CCN(C3CCN(c4ccc5c(c4)C(=O)N(C4CCC(=O)NC4=O)C5=O)CC3)CC2)CC1 (stereo partly specified)	684	
COc1cc2nc(C)nc(N[C@H](C)c3cccc(C#N)c3C)c2cc1OCC1(CN(C)C(=O)CCCCCCNc2cccc3c2C(=O)N(C2CCC(=O)NC2=O)C3=O)CC1 (stereo partly specified)	2050	
COc1cc2nc(C)nc(N[C@H](C)c3cc(N)cc(C(F)(F)F)c3)c2cc1OCC1(CN(C)C(=O)C2CCC(NC3CCN(c4ccc5c(c4)C(=O)N(C4CCC(=O)NC4=O)C5=O)CC3)CC2)CC1 (stereo partly specified)	513	
COc1cc2nc(C)nc(N[C@H](C)c3cc(N)cc(C(F)(F)F)c3)c2cc1OCC1(CN(C)C(=O)CCC(=O)N(C)C2CCC(Nc3cccc4c3C(=O)N(C3CCC(=O)NC3=O)C4=O)CC2)CC1 (stereo partly specified)	927	
COc1cc2nc(C)nc(N[C@H](C)c3cc(N)cc(C(F)(F)F)c3)c2cc1OCC1(CN(C)C(=O)CCOCCNc2cccc3c2C(=O)N(C2CCC(=O)NC2=O)C3=O)CC1 (stereo partly specified)	1660	
COc1cc2nc(C)nc(N[C@H](C)c3cc(N)cc(C(F)(F)F)c3)c2cc1O[C@H]1CCOC1	26	IC50 (NCI-H358 [3]): 26 nM; inhibition in vivo at 30 mg/kg (NCI-H358 [4]): 39.4%; Activity [5]: Non-Toxic; IC50 (NCI-H358 [6]): 24 nM; IC50 [7]: 17 nM; IC50 (DLD-1): 102 nM; IC50 (NCI-H441): 68 nM
COc1cc2nc(C)nc(N[C@H](C)c3cc(N)cc(C(F)(F)F)c3)c2cc1OCC1(CN(C)C(=O)CCCCCCOc2cccc3c2C(=O)N(C2CCC(=O)NC2=O)C3=O)CC1 (stereo partly specified)	75	
COc1cc2nc(C)nc(N[C@H](C)c3cc(N)cc(C(F)(F)F)c3)c2cc1OCC1(CN(C)C(=O)CCCOC2CCC(Nc3cccc4c3C(=O)N(C3CCC(=O)NC3=O)C4=O)CC2)CC1 (stereo partly specified)	15	DC50 ([2]; read-out: DC50): 35 nM
COc1cc2nc(C)nc(N[C@H](C)c3cc(N)cc(C(F)(F)F)c3)c2cc1OCC1(CN(C)C(=O)COCCCCNc2cccc3c2C(=O)N(C2CCC(=O)NC2=O)C3=O)CC1 (stereo partly specified)	114	
CNCC1(COc2cc3c(N[C@H](C)c4cc(N)cc(C(F)(F)F)c4)nc(C)nc3cc2OC)CC1	102	IC50 (SOS1-KRAS): 10 nM
O=C(O)CCCCCCNc1cccc2c1C(=O)N(C1CCC(=O)NC1=O)C2=O (stereo unspecified)		DC50 [2]: Not Active
COc1cc2nc(C)nc(N[C@H](C)c3cc(N)cc(C(F)(F)F)c3)c2cc1OCC1(CN(C)C(=O)CCCCCCNc2ccc(F)c3c2C(=O)N(C2CCC(=O)NC2=O)C3=O)CC1 (stereo partly specified)	23	DC50 ([2]; read-out: DC50): 63 nM
COc1cc2nc(C)nc(N[C@H](C)c3cc(N)cc(C(F)(F)F)c3)c2cc1OCC1(CN(C)C(=O)CCCCCCNc2cccc3c2CN(C2CCC(=O)NC2=O)C3=O)CC1 (stereo partly specified)	47	DC50 ([2]; read-out: DC50): 151 nM
COc1cc2nc(C)nc(N[C@H](C)c3cc(N)cc(C(F)(F)F)c3)c2cc1OCC1(CN(C)C(=O)COCCNc2cccc3c2C(=O)N(C2CCC(=O)NC2=O)C3=O)CC1 (stereo partly specified)	1380	

More lines, main results first:

IC50 (NCI-H358 [1]) [nM]	SMILES	other results
928	COc1cc2nc(C)nc(N[C@H](C)c3cc(N)cc(C(F)(F)F)c3)c2cc1OCC1(CN(C)C(=O)CN2CCN(C3CCN(c4ccc5c(c4)C(=O)N(C4CCC(=O)NC4=O)C5=O)CC3)CC2)CC1 (stereo partly specified)	
733	COc1cc2nc(C)nc(N[C@H](C)c3cc(N)cc(C(F)(F)F)c3)c2cc1OCC1(CN(C)C(=O)C2CCC(OC3CCN(c4ccc5c(c4)C(=O)N(C4CCC(=O)NC4=O)C5=O)CC3)CC2)CC1 (stereo partly specified)	
86	COc1cc2nc(C)nc(N[C@H](C)c3cc(N)cc(C(F)(F)F)c3)c2cc1OCC1(CN(C)C(=O)CCCCNc2cccc3c2C(=O)N(C2CCC(=O)NC2=O)C3=O)CC1 (stereo partly specified)	
1140	COc1cc2nc(C)nc(N[C@H](C)c3cc(N)cc(C(F)(F)F)c3)c2cc1OCC1(CN(C)C(=O)CCOCCC#Cc2cccc3c2C(=O)N(C2CCC(=O)NC2=O)C3=O)CC1 (stereo partly specified)	
18	COc1cc2nc(C)nc(N[C@H](C)c3cc(N)cc(C(F)(F)F)c3)c2cc1OCC1(CN(C)C(=O)C2CCN(CCNc3cccc4c3C(=O)N(C3CCC(=O)NC3=O)C4=O)CC2)CC1 (stereo partly specified)	DC50 ([2]; read-out: DC50): 44 nM
814	COc1cc2nc(C)nc(N[C@H](C)c3cc(N)cc(C(F)(F)F)c3)c2cc1OCC1(CN(C)C(=O)CN2CCC(OC3CCN(c4ccc5c(c4)C(=O)N(C4CCC(=O)NC4=O)C5=O)CC3)CC2)CC1 (stereo partly specified)	
63	COc1cc2nc(C)nc(N[C@H](C)c3cc(N)cc(C(F)(F)F)c3)c2cc1OCC1(CN(C)C(=O)CCCCCCNc2c(F)ccc3c2C(=O)N(C2CCC(=O)NC2=O)C3=O)CC1 (stereo partly specified)	
591	COc1cc2nc(C)nc(N[C@H](C)c3cc(N)cc(C(F)(F)F)c3)c2cc1OCC1(CN(C)C(=O)CCCCCC#Cc2cccc3c2C(=O)N(C2CCC(=O)NC2=O)C3=O)CC1 (stereo partly specified)	
51	COc1cc2nc(C)nc(N[C@H](C)c3cc(N)cc(C(F)(F)F)c3)c2cc1OCC1(CN(C)C(=O)C2CCN(C3CCC(Nc4cccc5c4C(=O)N(C4CCC(=O)NC4=O)C5=O)CC3)CC2)CC1 (stereo partly specified)	DC50 ([2]; read-out: DC50): 55 nM
421	COc1cc2nc(C)nc(N[C@H](C)c3cc(N)cc(C(F)(F)F)c3)c2cc1OCC1(CN(C)C(=O)CCOCCOCCNc2cccc3c2C(=O)N(C2CCC(=O)NC2=O)C3=O)CC1 (stereo partly specified)	
1370	COc1cc2nc(C)nc(N[C@H](C)c3cc(N)cc(C(F)(F)F)c3)c2cc1OCC1(CN(C)C(=O)C2CCC(N3CCN(c4ccc5c(c4)C(=O)N(C4CCC(=O)NC4=O)C5=O)CC3)CC2)CC1 (stereo partly specified)	
